Earlier results, collected in US20260102333A1, “TOPICAL DELIVERY OF ANTIFUNGAL AGENTS FOR TREATING FUNGAL INFECTIONS” (LYOTROPIC DELIVERY SYSTEMS LTD., priority 2022, published 2026).
Structures can show the parent of a compound that is named as a salt.

Assays:
[1] = test system: Trichophyton mentagrophytes
[2] = test system: Trichophyton rubrum

## CN(C/C=C/C#CC(C)(C)C)Cc1cccc2ccccc12 [TRB, terbinafine hydrochloride]
[1]
  MIC50 (minimum inhibitory concentration required for 50% inhibition): 0.03 to 0.5 µg/mL
[2]
  MIC50 (minimum inhibitory concentration required for 50% inhibition): 0.03 to 0.5 µg/mL
